Source: ChEMBL document CHEMBL4417633, “Inhibitory polypeptides specific to WNT inhibitors” (2017)
pIC50: −log10 of the molar value. Where a SMILES comes first, the peptide text is derived from it.

Legend:
[1] = target: T1, Dickkopf WNT-signaling pathway inhibitor 1 (Rattus norvegicus, UniProt A6I0Z0); test: Inhibition of biotin-labeled rat recombinant DKK1 assessed as reduction in DKK1 interaction with LRP-6/Fc incubated overnight by chemiluminescence based Alpha-screen assay
T1 sequence (A6I0Z0 whole entry): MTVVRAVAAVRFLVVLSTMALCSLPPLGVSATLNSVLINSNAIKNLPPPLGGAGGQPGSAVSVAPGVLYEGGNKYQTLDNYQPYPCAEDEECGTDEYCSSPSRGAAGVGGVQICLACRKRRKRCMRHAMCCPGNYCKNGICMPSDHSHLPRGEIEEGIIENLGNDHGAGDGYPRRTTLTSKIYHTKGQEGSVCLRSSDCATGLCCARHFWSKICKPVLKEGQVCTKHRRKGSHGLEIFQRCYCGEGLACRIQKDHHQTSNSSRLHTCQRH

[2] = target: T2, Dickkopf-related protein 1 (Homo sapiens, UniProt O94907); test: Inhibition of biotin-labeled human recombinant DKK1 assessed as reduction in DKK1 interaction with LRP-6/Fc incubated overnight by chemiluminescence based Alpha-screen assay
T2 sequence (O94907 whole entry): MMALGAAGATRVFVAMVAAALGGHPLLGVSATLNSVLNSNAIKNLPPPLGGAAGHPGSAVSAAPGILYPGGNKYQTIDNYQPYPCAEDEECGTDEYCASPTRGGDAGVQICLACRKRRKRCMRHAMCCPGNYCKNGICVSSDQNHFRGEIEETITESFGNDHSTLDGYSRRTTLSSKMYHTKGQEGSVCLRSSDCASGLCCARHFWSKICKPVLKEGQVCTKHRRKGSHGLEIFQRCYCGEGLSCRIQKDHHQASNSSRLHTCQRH

| Structure (SMILES) | pIC50 [1] | pIC50 [2] |
| --- | --- | --- |
| CSCC[C@H](NC(=O)[C@@H]1CCCN1C(=O)[C@H](Cc1ccc(O)cc1)NC(=O)[C@H](CS)NC(=O)[C@H](Cc1cnc[nH]1)NC(=O)[C@H](CC(N)=O)NC(=O)[C@H](Cc1ccc(O)cc1)NC(=O)[C@H](CC(N)=O)NC(=O)[C@H](CCCNC(=N)N)NC(=O)[C@H](CS)NC(=O)[C@H](CCC(N)=O)NC(=O)[C@H](Cc1ccccc1)NC(=O)[C@H](Cc1ccc(O)cc1)NC(=O)[C@H](CO)NC(=O)[C@H](C)NC(=O)[C@@H]1CCCN1C(=O)[C@@H](N)CS)C(=O)N[C@@H](CCC(=O)O)C(=O)N[C@@H](Cc1c[nH]c2ccccc12)C(=O)N[C@@H](CCCNC(=N)N)C(=O)N[C@@H](CS)C(=O)N[C@@H](CC(=O)O)C(=O)NCC(=O)N[C@@H](Cc1ccccc1)C(=O)N[C@@H](CCC(=O)O)C(=O)N[C@@H](CC(=O)O)C(=O)N[C@@H](CS)C(=O)N[C@@H](CC(C)C)C(=O)N[C@@H](CC(=O)O)C(=O)NCC(=O)N[C@@H](CO)C(=O)N[C@@H](CC(=O)O)C(=O)N[C@@H](CCC(=O)O)C(=O)N[C@H](C(=O)N[C@@H](CC(=O)O)C(=O)N[C@@H](CS)C(=O)N1CCC[C@H]1C(=O)N[C@@H](Cc1ccc(O)cc1)C(=O)N[C@@H](CCCNC(=N)N)C(=O)N[C@H](C(=O)O)[C@@H](C)O)[C@@H](C)O (H-CPASYFQCRNYNHCYPMEWRCDGFEDCLDGSDETDCPYRT-OH) | ≥ 9.00 | ≥ 9.00 |
| CC[C@H](C)[C@H](NC(=O)[C@H](CC(C)C)NC(=O)[C@@H]1CCCN1C(=O)[C@H](Cc1ccccc1)NC(=O)[C@H](CS)NC(=O)[C@H](CCSC)NC(=O)[C@H](CCCCN)NC(=O)[C@H](CC(=O)O)NC(=O)[C@H](C)NC(=O)[C@H](CS)NC(=O)[C@H](CCSC)NC(=O)[C@H](Cc1ccccc1)NC(=O)[C@H](CCC(=O)O)NC(=O)[C@H](CC(N)=O)NC(=O)[C@H](CO)NC(=O)[C@@H]1CCCN1C(=O)[C@@H](N)CS)C(=O)N[C@@H](Cc1ccccc1)C(=O)N[C@@H](CC(C)C)C(=O)N[C@@H](CS)C(=O)N[C@@H](CC(=O)O)C(=O)NCC(=O)N[C@@H](CCC(=O)O)C(=O)N[C@@H](CC(N)=O)C(=O)N[C@@H](CC(=O)O)C(=O)N[C@@H](CS)C(=O)N[C@@H](CCC(=O)O)C(=O)N[C@@H](CC(=O)O)C(=O)NCC(=O)N[C@@H](CO)C(=O)N[C@@H](CC(=O)O)C(=O)N[C@@H](CCC(=O)O)C(=O)N[C@H](C(=O)N[C@@H](CC(=O)O)C(=O)N[C@@H](CS)C(=O)N1CCC[C@H]1C(=O)N[C@@H](CO)C(=O)N[C@@H](CCCNC(=N)N)C(=O)N[C@H](C(=O)O)[C@@H](C)O)C(C)C (H-CPSNEFMCADKMCFPLIFLCDGENDCEDGSDEVDCPSRT-OH) | 7.10 to 7.40 | 7.10 to 7.40 |
| CC[C@H](C)[C@H](NC(=O)[C@H](CC(N)=O)NC(=O)CNC(=O)[C@H](CS)NC(=O)[C@H](CCC(N)=O)NC(=O)[C@H](Cc1ccccc1)NC(=O)[C@H](Cc1ccc(O)cc1)NC(=O)[C@H](CO)NC(=O)[C@@H]1CCCN1C(=O)[C@@H]1CCCN1C(=O)[C@@H](N)CS)C(=O)N[C@@H](CC(N)=O)C(=O)N[C@@H](Cc1cnc[nH]1)C(=O)N[C@@H](CS)C(=O)N[C@@H](Cc1ccc(O)cc1)C(=O)N1CCC[C@H]1C(=O)N[C@@H](CCSC)C(=O)N[C@@H](CCC(=O)O)C(=O)N[C@@H](Cc1c[nH]c2ccccc12)C(=O)N[C@@H](CCCNC(=N)N)C(=O)N[C@@H](CS)C(=O)N[C@@H](CC(=O)O)C(=O)NCC(=O)N[C@@H](Cc1ccccc1)C(=O)N[C@@H](Cc1cnc[nH]1)C(=O)N[C@@H](CC(=O)O)C(=O)N[C@@H](CS)C(=O)N[C@H](C(=O)N[C@@H](CC(=O)O)C(=O)NCC(=O)N[C@@H](CO)C(=O)N[C@@H](CC(=O)O)C(=O)N[C@@H](CCC(=O)O)C(=O)N[C@@H](CCC(N)=O)C(=O)NCC(=O)N[C@@H](CS)C(=O)N1CCC[C@H]1C(=O)N[C@@H](Cc1ccc(O)cc1)C(=O)N[C@@H](CCCNC(=N)N)C(=O)N[C@H](C(=O)O)[C@@H](C)O)C(C)C (H-CPPSYFQCGNINHCYPMEWRCDGFHDCVDGSDEQGCPYRT-OH) | ≥ 9.00 | ≥ 9.00 |
| CSCC[C@H](NC(=O)[C@@H]1CCCN1C(=O)[C@H](Cc1ccc(O)cc1)NC(=O)[C@H](CS)NC(=O)[C@H](Cc1cnc[nH]1)NC(=O)[C@H](CC(N)=O)NC(=O)[C@H](CCCCN)NC(=O)[C@H](CC(N)=O)NC(=O)[C@H](CCCNC(=N)N)NC(=O)[C@H](CS)NC(=O)[C@H](CCCCN)NC(=O)[C@H](Cc1ccccc1)NC(=O)[C@H](Cc1ccc(O)cc1)NC(=O)[C@H](CO)NC(=O)[C@@H](NC(=O)[C@@H]1CCCN1C(=O)[C@@H](N)CS)C(C)C)C(=O)N[C@@H](CCC(=O)O)C(=O)N[C@@H](Cc1c[nH]c2ccccc12)C(=O)N[C@@H](CCCNC(=N)N)C(=O)N[C@@H](CS)C(=O)N[C@@H](CC(=O)O)C(=O)NCC(=O)N[C@@H](Cc1ccccc1)C(=O)N1CCC[C@H]1C(=O)N[C@@H](CC(=O)O)C(=O)N[C@@H](CS)C(=O)N[C@@H](CCC(=O)O)C(=O)N[C@@H](CC(=O)O)C(=O)NCC(=O)N[C@@H](CO)C(=O)N[C@@H](CC(=O)O)C(=O)N[C@@H](CCC(=O)O)C(=O)N[C@@H](CCCCN)C(=O)NCC(=O)N[C@@H](CS)C(=O)N1CCC[C@H]1C(=O)N[C@@H](Cc1ccc(O)cc1)C(=O)N[C@@H](CCCNC(=N)N)C(=O)N[C@H](C(=O)O)[C@@H](C)O (H-CPVSYFKCRNKNHCYPMEWRCDGFPDCEDGSDEKGCPYRT-OH) | ≥ 9.00 | ≥ 9.00 |
| CSCC[C@H](NC(=O)[C@@H]1CCCN1C(=O)[C@H](Cc1ccc(O)cc1)NC(=O)[C@H](CS)NC(=O)[C@H](Cc1cnc[nH]1)NC(=O)[C@H](CC(N)=O)NC(=O)[C@H](CC(C)C)NC(=O)[C@H](CC(N)=O)NC(=O)CNC(=O)[C@H](CS)NC(=O)[C@H](CCC(N)=O)NC(=O)[C@H](Cc1ccccc1)NC(=O)[C@H](Cc1ccc(O)cc1)NC(=O)[C@H](CO)NC(=O)[C@H](C)NC(=O)[C@@H]1CCCN1C(=O)[C@@H](N)CS)C(=O)N[C@@H](CCC(=O)O)C(=O)N[C@@H](Cc1c[nH]c2ccccc12)C(=O)N[C@@H](CCCNC(=N)N)C(=O)N[C@@H](CS)C(=O)N[C@@H](CC(=O)O)C(=O)NCC(=O)N[C@@H](Cc1ccccc1)C(=O)N[C@@H](CCC(N)=O)C(=O)N[C@@H](CC(=O)O)C(=O)N[C@@H](CS)C(=O)N[C@H](C(=O)N[C@@H](CC(=O)O)C(=O)NCC(=O)N[C@@H](CO)C(=O)N[C@@H](CC(=O)O)C(=O)N[C@@H](CCC(=O)O)C(=O)N[C@@H](CCCCN)C(=O)NCC(=O)N[C@@H](CS)C(=O)N1CCC[C@H]1C(=O)N[C@@H](Cc1ccc(O)cc1)C(=O)N[C@@H](CCCNC(=N)N)C(=O)N[C@H](C(=O)O)[C@@H](C)O)C(C)C (H-CPASYFQCGNLNHCYPMEWRCDGFQDCVDGSDEKGCPYRT-OH) | ≥ 9.00 | ≥ 9.00 |
| CSCC[C@H](NC(=O)[C@H](CS)NC(=O)[C@H](CCC(N)=O)NC(=O)[C@H](Cc1ccccc1)NC(=O)[C@H](Cc1ccc(O)cc1)NC(=O)[C@H](CO)NC(=O)[C@H](C)NC(=O)[C@@H]1CCCN1C(=O)[C@@H](N)CS)C(=O)N[C@@H](CC(N)=O)C(=O)N[C@@H](Cc1cnc[nH]1)C(=O)N[C@@H](CC(N)=O)C(=O)N[C@@H](Cc1cnc[nH]1)C(=O)N[C@@H](CS)C(=O)N[C@@H](Cc1ccc(O)cc1)C(=O)N1CCC[C@H]1C(=O)N[C@@H](CCSC)C(=O)N[C@@H](CCC(=O)O)C(=O)N[C@@H](Cc1c[nH]c2ccccc12)C(=O)N[C@@H](CCCNC(=N)N)C(=O)N[C@@H](CS)C(=O)N[C@@H](CC(=O)O)C(=O)NCC(=O)N[C@@H](Cc1ccccc1)C(=O)N1CCC[C@H]1C(=O)N[C@@H](CC(=O)O)C(=O)N[C@@H](CS)C(=O)N[C@@H](CCC(=O)O)C(=O)N[C@@H](CC(=O)O)C(=O)NCC(=O)N[C@@H](CO)C(=O)N[C@@H](CC(=O)O)C(=O)N[C@@H](CCC(=O)O)C(=O)N[C@@H](CCCCN)C(=O)NCC(=O)N[C@@H](CS)C(=O)N1CCC[C@H]1C(=O)N[C@@H](Cc1ccc(O)cc1)C(=O)N[C@@H](CCCNC(=N)N)C(=O)N[C@H](C(=O)O)[C@@H](C)O (H-CPASYFQCMNHNHCYPMEWRCDGFPDCEDGSDEKGCPYRT-OH) | ≥ 9.00 | ≥ 9.00 |
| CSCC[C@H](NC(=O)[C@@H]1CCCN1C(=O)[C@H](Cc1ccc(O)cc1)NC(=O)[C@H](CS)NC(=O)[C@H](Cc1cnc[nH]1)NC(=O)[C@@H]1CCCN1C(=O)[C@H](Cc1cnc[nH]1)NC(=O)[C@H](CO)NC(=O)CNC(=O)[C@H](CS)NC(=O)[C@H](CCC(N)=O)NC(=O)[C@H](Cc1ccccc1)NC(=O)[C@H](Cc1ccc(O)cc1)NC(=O)[C@H](CO)NC(=O)[C@H](C)NC(=O)[C@@H]1CCCN1C(=O)[C@@H](N)CS)C(=O)N[C@@H](CCC(=O)O)C(=O)N[C@@H](Cc1c[nH]c2ccccc12)C(=O)N[C@@H](CCCNC(=N)N)C(=O)N[C@@H](CS)C(=O)N[C@@H](CC(=O)O)C(=O)NCC(=O)N[C@@H](Cc1ccccc1)C(=O)N[C@@H](CCC(N)=O)C(=O)N[C@@H](CC(=O)O)C(=O)N[C@@H](CS)C(=O)N[C@@H](CCC(=O)O)C(=O)N[C@@H](CC(=O)O)C(=O)NCC(=O)N[C@@H](CO)C(=O)N[C@@H](CC(=O)O)C(=O)N[C@@H](CCC(=O)O)C(=O)N[C@@H](CC(C)C)C(=O)NCC(=O)N[C@@H](CS)C(=O)N1CCC[C@H]1C(=O)N[C@@H](Cc1ccc(O)cc1)C(=O)N[C@@H](CCCNC(=N)N)C(=O)N[C@H](C(=O)O)[C@@H](C)O (H-CPASYFQCGSHPHCYPMEWRCDGFQDCEDGSDELGCPYRT-OH) | ≥ 9.00 | ≥ 9.00 |
